Laboratory results from patent US8034940B2, “Modulators of glucocorticoid receptor, AP-1, and/or NF-κB activity and use thereof” (Bristol-Myers Squibb Company, priority 2006, dated 2011).

System: AP-1 induced transcriptional activity
Assay: Cellular Transrepressional Assay (AP-1 luciferase reporter, PMA-activated A549 cells)
Format: cell-based
Details: for Emax: A549, 7 h, read-out: AP-1 Max % inh (Cellular Transrepression Assay)
In short: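 Compounds tested from 0.1 nM to 40 μM during a 7 h PMA (10 ng/ml) stimulation of A549 cells stably transfected with 7× AP-1 sites driving luciferase. Repression expressed as % reduction of PMA-induced luminescence; EC50 by curve fitting.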

[1] = Homo sapiens, maximum inhibition, Cellular Transrepression Assay
[2] = Homo sapiens, A549, Cellular Transrepression Assay

Row | Structure (SMILES) | EC50 [2] [nM] | EC50 (Cellular Transrepression Assay) [nM] | Emax [1] [%] | AP-1 Max % inh (Cellular Transrepression Assay) (maximum inhibition, Cellular Transrepression Assay) [%]
1 | CN(C)C(=O)c1ccc(-c2ccc3c(n2)Oc2ccccc2[C@@H]3C(C)(C)C(=O)Nc2nnc(CF)s2)cc1 [Example 432] | 52.7 |  | 40.2 | 
2 | CC(C)(C(=O)Nc1nnc(C#N)s1)[C@H]1c2ccccc2Oc2nc(-c3ccc(C(=O)N4CCOCC4)cc3)ccc21 [Example 434] |  | 197 |  | 38.45
3 | CC(C)(C(=O)Nc1nnc(C#N)s1)[C@H]1c2ccccc2Oc2nc(-c3ccc(C(=O)N4CCCC4)c(F)c3)ccc21 [Example 435] | 292 |  | 27.9 | 
4 | CCCC/C=C/c1ccc2c(n1)Oc1ccccc1[C@@H]2C(C)(C)C(=O)Nc1nncs1 [Example 436] | 95.7 |  | 44 | 
5 | CN(C)C(=O)c1ccc(-c2ccc3c(n2)Oc2ccccc2C3C(C)(C)C(=O)Nc2ncns2)cc1 (stereo not shown) [Example 441] | 63.9 |  | 52.4 | 
6 | CN(C)C(=O)c1ccc(-c2ccc3c(n2)Oc2ccccc2C3C(C)(C)C(=O)NC2=NCCS2)cc1 (stereo not shown) [Example 442] | 127 |  | 50.1 | 
7 | Cc1csc(NC(=O)C(C)(C)[C@H]2c3ccccc3Oc3nc(-c4ccc(C(=O)N(C)C)cc4)ccc32)n1 [Example 443] | 134 |  | 51.7 | 
8 | Cc1cnc(NC(=O)C(C)(C)[C@H]2c3ccccc3Oc3nc(-c4ccc(C(=O)N(C)C)cc4)ccc32)s1 [Example 444] | 44.2 |  | 57.5 | 
9 | CN(C)C(=O)c1ccc(-c2ccc3c(n2)Oc2ccccc2[C@@H]3C(C)(C)C(=O)Nc2nnc(C(F)(F)F)s2)cc1 [Example 446] | 413 |  | 27.7 | 
10 | CCc1nnc(NC(=O)C(C)(C)[C@H]2c3ccccc3Oc3nc(-c4ccc(C(=O)N(C)C)cc4)ccc32)s1 [Example 447] | 95.4 |  | 53 | 
11 | CN(C)C(=O)c1ccc(-c2ccc3c(n2)Oc2ccccc2[C@@H]3C(C)(C)C(=O)Nc2nnc(C3CC3)s2)cc1 [Example 448] | 178 |  | 56.6 | 
12 | Cc1nsc(NC(=O)C(C)(C)[C@H]2c3ccccc3Oc3nc(-c4ccc(C(=O)N(C)C)cc4)ccc32)n1 [Example 449] | 126 |  | 48.9 | 
13 | CC(C)(C(=O)Nc1nncs1)[C@H]1c2ccccc2Oc2nc(-c3cn[nH]c3)ccc21 [Example 450] | 59.2 |  | 26.3 | 
14 | CC(C)Oc1ccc(-c2ccc3c(n2)Oc2ccccc2[C@@H]3C(C)(C)C(=O)Nc2ncns2)cc1 [Example 458] | 53.2 |  | 35.2 | 
15 | CC(C)Oc1ccc(-c2ccc3c(n2)Oc2ccccc2[C@@H]3C(C)(C)C(=O)Nc2ncns2)cc1F [Example 459] | 102 |  | 35.4 | 

More lines, in order of falling EC50 [2], values ahead:

Row | EC50 [2] [nM] | EC50 (Cellular Transrepression Assay) [nM] | Structure (SMILES) | Emax [1] [%] | AP-1 Max % inh (Cellular Transrepression Assay) (maximum inhibition, Cellular Transrepression Assay) [%]
16 | 41.5 |  | CC(C)(C(=O)Nc1ncns1)[C@H]1c2ccccc2Oc2nc(-c3ccc(C(=O)N4CCCC4)c(F)c3)ccc21 [Example 456] | 45.8 | 
17 | 41 |  | CC(C)(C(=O)Nc1nnc(CF)s1)[C@H]1c2ccccc2Oc2nc(-c3ccc(C(=O)N4CCCC4)cc3)ccc21 [Example 433] | 46.2 | 
18 | 38.5 |  | Cc1nnc(NC(=O)C(C)(C)[C@H]2c3ccccc3Oc3nc(-c4ccc(C(=O)N(C)C)cc4)ccc32)s1 [Example 445] | 45.7 | 
19 | 30.3 |  | Cc1nnc(NC(=O)C(C)(C)[C@H]2c3ccccc3Oc3nc(-c4ccc(C(=O)N5CCCC5)cc4)ccc32)s1 [Example 460] | 56.9 | 
20 | 25.3 |  | CCN(C)C(=O)c1ccc(-c2ccc3c(n2)Oc2ccccc2[C@@H]3C(C)(C)C(=O)Nc2ncns2)cc1F [Example 454] | 49.5 | 
21 | 24.6 |  | CC(C)(C(=O)Nc1ncns1)[C@H]1c2ccccc2Oc2nc(-c3ccc(C(=O)N4CCCC4)cc3)ccc21 [Example 455] | 58.6 | 
22 | 16.6 |  | CC(C)(C(=O)Nc1ncns1)[C@H]1c2ccccc2Oc2nc(-c3ccc(C(=O)N4CCOCC4)cc3)ccc21 [Example 457] | 51.9 | 
23 | 11.1 |  | CC(=O)c1ccc(-c2ccc3c(n2)Oc2ccccc2[C@@H]3C(C)(C)C(=O)Nc2nncs2)s1 [Example 452] | 53.4 | 
